Results taken from patent US20260098025A1, “DIMERIC COMPOUNDS AS INHIBITORS OF GLYCOGEN SYNTHASE 1 (GYS1) AND METHODS OF USE THEREOF” (Maze Therapeutics, Inc., priority 2022, published 2026).

Each compound was assayed against T1, recombinant hGYS1/GN1 protein (Homo sapiens, UniProt P13807) (assay: GYS1 coupled enzyme assay (PK/LDH, NADH absorbance at 340 nm)). Conditions: geometric mean of at least 2 assay runs on separate days; hGYS1/GN1 50 nM, Glucose-6-Phosphate 1 mM, UDP-Glucose 0.8 mM.
T1 sequence (P13807 1-737): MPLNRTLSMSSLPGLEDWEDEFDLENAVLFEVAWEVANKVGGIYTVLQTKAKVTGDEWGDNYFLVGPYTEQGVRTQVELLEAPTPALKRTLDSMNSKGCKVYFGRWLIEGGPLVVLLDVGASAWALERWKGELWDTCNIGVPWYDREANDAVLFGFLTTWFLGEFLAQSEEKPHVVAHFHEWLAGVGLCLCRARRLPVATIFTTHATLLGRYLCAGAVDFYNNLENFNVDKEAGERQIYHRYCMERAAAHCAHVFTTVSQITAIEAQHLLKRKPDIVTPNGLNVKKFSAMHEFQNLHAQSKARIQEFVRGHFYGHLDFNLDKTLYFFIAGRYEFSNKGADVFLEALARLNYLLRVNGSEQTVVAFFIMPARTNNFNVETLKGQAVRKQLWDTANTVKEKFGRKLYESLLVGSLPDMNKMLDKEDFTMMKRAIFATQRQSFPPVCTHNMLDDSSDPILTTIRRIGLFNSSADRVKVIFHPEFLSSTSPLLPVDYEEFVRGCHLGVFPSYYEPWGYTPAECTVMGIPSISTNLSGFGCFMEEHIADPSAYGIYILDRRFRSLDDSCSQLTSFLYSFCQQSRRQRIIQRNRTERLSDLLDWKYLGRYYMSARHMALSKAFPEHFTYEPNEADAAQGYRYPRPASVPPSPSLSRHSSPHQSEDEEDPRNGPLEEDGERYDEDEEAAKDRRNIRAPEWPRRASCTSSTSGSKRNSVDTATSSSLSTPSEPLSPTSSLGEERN
T1 sequence (P46976 1-350 partner): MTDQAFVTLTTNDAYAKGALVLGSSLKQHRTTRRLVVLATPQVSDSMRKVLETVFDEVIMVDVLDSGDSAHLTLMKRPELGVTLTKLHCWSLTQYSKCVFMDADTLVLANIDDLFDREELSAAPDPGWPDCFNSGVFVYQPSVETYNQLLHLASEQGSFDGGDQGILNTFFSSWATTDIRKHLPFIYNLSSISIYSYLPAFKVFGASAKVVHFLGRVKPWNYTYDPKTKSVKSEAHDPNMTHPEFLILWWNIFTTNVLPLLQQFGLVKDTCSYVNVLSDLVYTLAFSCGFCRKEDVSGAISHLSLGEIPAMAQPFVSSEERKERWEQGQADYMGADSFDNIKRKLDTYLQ
Format: biochemical
From the text: The GYS1 coupled enzyme assay is a kinetic biochemical assay that indirectly quantifies the rate of glycogen synthesis by coupling the conversion of GYS1 substrate UDP-glucose into UDP with downstream enzymatic reactions. UDP is released from UDP-glucose as glucose monomers are linked into the growing glycogen strand by GYS1. The coupled assay then proceeds with pyruvate kinase utilizing UDP and phospho(enol)pyruvate (PEP) to form pyruvate. Lactate dehydrogenase then converts pyruvate and NADH into lactate and NAD+. Oxidation of NADH to NAD+ can be measured continuously with a plate reader by quantifying the decrease in NADH absorbance at 340 nm over time.
Compounds that inhibit the hGYS1 enzyme and, subsequently, the downstream conversion of NADH to NAD+, were tested using assay ready plates (black, clear bottom 384 well plates) in a final DMSO reaction volume of 2.5% DMSO. The Assay Buffer contained 50 mM Tris pH 7.5, 2 mM MgCl2, and 100 mM KCl. Fresh stocks of BSA at a final concentration of 0.02% and TCEP at 1 mM were added before splitting buffer into hGYS1 buffer and substrate buffer. To the hGYS1 buffer, rabbit liver glycogen was added at a final concentration of 0.2% glycogen. Glucose-6-Phosphate was added at 1 mM, recombinant hGYS1/GN1 protein was added at 50 nM to the substrate buffer, phosphoenolpyruvate (PEP) was added at 2 mM, UDP-Glucose was added at 0.8 mM, NADH) was added at 0.6 mM, and Pyruvate Kinase/Lactate Dehydrogenase was added at 20 units/mL. The reaction was initiated by mixing hGYS1 buffer and substrate buffer at a 1:1 ratio. Both buffers were plated using a liquid dispensing device with hGYS1 buffer plated first followed by the substrate buffer. Plates were spun briefly to eliminate air bubbles and are immediately read in continuous mode at an absorbance of 340 nm, for 10 time points in one-minute increments, for a total of 10 minutes. The slope from these 10 time points was normalized to the positive and negative control wells. The duplicate % inhibition values are then averaged and fit to a Hill equation for dose response according to the Levenberg-Marquardt algorithm with the Hill equation maximum set to 100 and the minimum set to 0.
The results are shown in Table 2 below, which reports the IC50 of each compound. Unless otherwise specified, IC50 values are reported as the geometric mean of at least 2 assay runs on separate days. Each run represents the average of a technical replicate, where each compound was assayed twice in the same plate. As shown in the table below, the compounds of the present invention are potent inhibitors of human GYS1. A superscript “#” symbol in Table 2 indicates results from a single assay run.
Note that, in Table 2, the compounds are referred to by the corresponding Compound No. in Table 1, which is also referred to in the synthetic examples.

Row | IC50 [nM] | SMILES
1 | > 10000 | O=C(N[C@@H](c1ccccc1)c1ccc(C2CC2)c(F)n1)[C@@H]1C[C@@H](F)CN1C(=O)COCCOCCNCCOCCOCCOCC(=O)N1C[C@H](F)C[C@H]1C(=O)N[C@@H](c1ccccc1)c1ccc(C2CC2)c(F)n1 [Compound 13, (2S,2′S,4R,4′R)-1,1′-(3,6,12,15,18-pentaoxa-9-azaicosanedioyl)bis(N-((S)-(5-cyclopropyl-6-fluoropyridin-2-yl)(phenyl)methyl)-4-fluoropyrrolidine-2-carboxamide)]
2 | 4.9 | Cc1cn(CC(=O)N2C[C@H](F)C[C@H]2C(=O)N[C@@H](c2ccccc2)c2ccc(C3CC3)c(F)n2)c(=O)n(CCOCCn2c(=O)c(C)cn(CC(=O)N3C[C@H](F)C[C@H]3C(=O)N[C@@H](c3ccccc3)c3ccc(C4CC4)c(F)n3)c2=O)c1=O [Compound 14, (2S,2′S,4R,4′R)-1,1′-(2,2′-((oxybis(ethane-2,1-diyl))bis(5-methyl-2,4-dioxo-3,4-dihydropyrimidine-3,1(2H)-diyl))bis(acetyl))bis(N-((S)-(5-cyclopropyl-6-fluoropyridin-2-yl)(phenyl)methyl)-4-fluoropyrrolidine-2-carboxamide)]
3 | 5.3 | Cc1cn(CC(=O)N2C[C@H](F)C[C@H]2C(=O)N[C@@H](c2ccccc2)c2ccc(C3CC3)c(F)n2)c(=O)n(CCOCCOCCn2c(=O)c(C)cn(CC(=O)N3C[C@H](F)C[C@H]3C(=O)N[C@@H](c3ccccc3)c3ccc(C4CC4)c(F)n3)c2=O)c1=O [Compound 15, (2S,2′S,4R,4′R)-1,1′-(2,2′-(((ethane-1,2-diylbis(oxy))bis(ethane-2,1-diyl))bis(5-methyl-2,4-dioxo-3,4-dihydropyrimidine-3,1(2H)-diyl))bis(acetyl))bis(N-((S)-(5-cyclopropyl-6-fluoropyridin-2-yl)(phenyl)methyl)-4-fluoropyrrolidine-2-carboxamide)]
4 | 23 | Cc1cn(CC(=O)N2C[C@H](F)C[C@H]2C(=O)N[C@@H](c2ccccc2)c2ccc(C3CC3)c(F)n2)c(=O)nc1OCCOc1nc(=O)n(CC(=O)N2C[C@H](F)C[C@H]2C(=O)N[C@@H](c2ccccc2)c2ccc(C3CC3)c(F)n2)cc1C [Compound 16, (2S,2′S,4R,4′R)-1,1′-(2,2′-((ethane-1,2-diylbis(oxy))bis(5-methyl-2-oxopyrimidine-4,1(2H)-diyl))bis(acetyl))bis(N-((S)-(5-cyclopropyl-6-fluoropyridin-2-yl)(phenyl)methyl)-4-fluoropyrrolidine-2-carboxamide)]
5 | 7.5 | CN(CCOCCOCCOCC(=O)N1C[C@H](F)C[C@H]1C(=O)N[C@@H](c1ccccc1)c1ccc(C2CC2)c(F)n1)CCOCCOCC(=O)N1C[C@H](F)C[C@H]1C(=O)N[C@@H](c1ccccc1)c1ccc(C2CC2)c(F)n1 [Compound 17, (2S,2′S,4R,4′R)-1,1′-(9-methyl-3,6,12,15,18-pentaoxa-9-azaicosanedioyl)bis(N-((S)-(5-cyclopropyl-6-fluoropyridin-2-yl)(phenyl)methyl)-4-fluoropyrrolidine-2-carboxamide)]
